Key:
Assay type in all cases: cell-based, mouse
[1] = system: α7 integrin (LacZ reporter in α7βgal+/− myoblasts); experiment: Myoblast α7+/LacZ integrin FDG assay (Burkin assay in myoblasts, 96-well); conditions: α7+/LacZ myoblasts, 96-well
[2] = system: β-galactosidase in CMV-LacZ C2C12 myotubes; experiment: CMV-LacZ secondary screen in C2C12 myotubes (β-Gal stabilizing assay); conditions: C2C12 CMV-LacZ myotubes, fold relative to DMSO
Method in brief: (§1)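 β-Gal level was the read-out, measured in a clonal C2C12 line expressing LacZ from a CMV promoter. Dose-response curves used six concentrations, 0.5 μM up to 40 μM, with duplicate points.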

[3] = system: β-galactosidase in CMV-LacZ C2C12 myoblasts; experiment: CMV-LacZ secondary screen in C2C12 myoblasts (β-Gal stabilizing assay); conditions: CMV-LacZ C2C12 myoblasts
Method in brief: as §1

[4] = system: α7 integrin (LacZ reporter in α7+/LacZ myotubes); experiment: Myotube α7 integrin FDG assay (Burkin assay in myotubes, 96-well); conditions: myotubes

Row | Structure (SMILES) | Burkin Assay in Myoblasts, signal relative to DMSO ([1]; 0.5 uM) | Burkin Assay in Myoblasts, signal relative to DMSO ([1]; 1 uM) | Burkin Assay in Myoblasts, signal relative to DMSO ([1]; 5 uM) | Burkin Assay in Myoblasts, signal relative to DMSO ([1]; 10 uM) | Burkin Assay in Myoblasts, signal relative to DMSO ([1]; 20 uM) | Burkin Assay in Myoblasts, signal relative to DMSO ([1]; 40 uM) | CMV-LACZ in Myotubes, signal relative to DMSO ([2]; 0.5 uM) | CMV-LACZ in Myotubes, signal relative to DMSO ([2]; 1 uM) | CMV-LACZ in Myotubes, signal relative to DMSO ([2]; 5 uM) | CMV-LACZ in Myotubes, signal relative to DMSO ([2]; 10 uM) | CMV-LACZ in Myotubes, signal relative to DMSO ([2]; 20 uM) | CMV-LACZ in Myotubes, signal relative to DMSO ([2]; 40 uM) | CMV-LACZ in Myoblasts (β-galactosidase activity relative to DMSO) ([3]; 0.5 uM) | CMV-LACZ in Myoblasts (β-galactosidase activity relative to DMSO) ([3]; 1 uM) | CMV-LACZ in Myoblasts (β-galactosidase activity relative to DMSO) ([3]; 5 uM) | CMV-LACZ in Myoblasts (β-galactosidase activity relative to DMSO) ([3]; 10 uM) | CMV-LACZ in Myoblasts (β-galactosidase activity relative to DMSO) ([3]; 20 uM) | CMV-LACZ in Myoblasts (β-galactosidase activity relative to DMSO) ([3]; 40 uM) | Burkin Assay in Myotubes, α7 integrin LacZ reporter signal relative to DMSO ([4]; 0.5 uM) | Burkin Assay in Myotubes, α7 integrin LacZ reporter signal relative to DMSO ([4]; 1 uM) | also measured
1 | O=C(Cn1nc(-c2ccc(Cl)cc2)ccc1=O)N1CCC2(CC1)OCCO2 [MLS000689492-01] | 1.073 | 0.908 | 0.94 | 0.9431 | 1.083 | 0.9652 | 1.0853 | 1.2400 | 1.0504 | 1.0940 | 1.0444 | 0.9267 | 0.9363 | 1.0252 | 1.0863 | 0.8653 | 1.0141 | 1.0026 | 1.156 | 1.138 | Burkin Assay in Myotubes, α7 integrin LacZ reporter signal relative to DMSO ([4]; 5 uM): 0.9311; Burkin Assay in Myotubes, α7 integrin LacZ reporter signal relative to DMSO ([4]; 10 uM): 0.9292; Burkin Assay in Myotubes, α7 integrin LacZ reporter signal relative to DMSO ([4]; 20 uM): 0.8836; Burkin Assay in Myotubes, α7 integrin LacZ reporter signal relative to DMSO ([4]; 40 uM): 0.7544
2 | CCCCN(CC)Cc1ccc(CNC(=S)Nc2ccccc2F)o1 [MLS000689562-01] | 1.074 | 1.014 | 1.013 | 1.224 | 0.9537 | 0.8817 | 0.9474 | 0.8652 | 1.0300 | 0.8105 | 0.9824 | 0.9788 | 0.8453 | 0.7409 | 0.8060 | 1.0858 | 0.9919 | 1.0619 | 1.081 | 1.035 | Burkin Assay in Myotubes, α7 integrin LacZ reporter signal relative to DMSO ([4]; 5 uM): 0.9788; Burkin Assay in Myotubes, α7 integrin LacZ reporter signal relative to DMSO ([4]; 10 uM): 1.0159; Burkin Assay in Myotubes, α7 integrin LacZ reporter signal relative to DMSO ([4]; 20 uM): 0.7236; Burkin Assay in Myotubes, α7 integrin LacZ reporter signal relative to DMSO ([4]; 40 uM): 0.8547
3 | COc1cc(/C=C/CN2CCN(Cc3ccc(C)o3)C(CCO)C2)ccc1O (stereo not drawn) [MLS000693704-01] | 1.428 | 1.153 | 1.1427 | 0.9418 | 0.8473 | 0.8019 | 0.8571 | 0.8695 | 1.1170 | 1.0812 | 1.1647 | 1.0600 | 0.8989 | 1.1157 | 0.9522 | 0.9977 | 0.7996 | 1.0567 | 0.9315 | 1.0787 | Burkin Assay in Myotubes, α7 integrin LacZ reporter signal relative to DMSO ([4]; 5 uM): 1.003; Burkin Assay in Myotubes, α7 integrin LacZ reporter signal relative to DMSO ([4]; 10 uM): 0.923; Burkin Assay in Myotubes, α7 integrin LacZ reporter signal relative to DMSO ([4]; 20 uM): 0.9587; Burkin Assay in Myotubes, α7 integrin LacZ reporter signal relative to DMSO ([4]; 40 uM): 0.8263

From US9980943B2, “Methods of treating muscular dystrophy” (BOARD OF REGENTS OF THE NEVADA SYSTEM OF HIGHER EDUCATION, …, priority 2013, dated 2018)
